# Target: T1, Human TRPC6 (Homo sapiens, UniProt Q9Y210)
# T1 construct: expressed in transfected cells
# T1 sequence (Q9Y210 1-931): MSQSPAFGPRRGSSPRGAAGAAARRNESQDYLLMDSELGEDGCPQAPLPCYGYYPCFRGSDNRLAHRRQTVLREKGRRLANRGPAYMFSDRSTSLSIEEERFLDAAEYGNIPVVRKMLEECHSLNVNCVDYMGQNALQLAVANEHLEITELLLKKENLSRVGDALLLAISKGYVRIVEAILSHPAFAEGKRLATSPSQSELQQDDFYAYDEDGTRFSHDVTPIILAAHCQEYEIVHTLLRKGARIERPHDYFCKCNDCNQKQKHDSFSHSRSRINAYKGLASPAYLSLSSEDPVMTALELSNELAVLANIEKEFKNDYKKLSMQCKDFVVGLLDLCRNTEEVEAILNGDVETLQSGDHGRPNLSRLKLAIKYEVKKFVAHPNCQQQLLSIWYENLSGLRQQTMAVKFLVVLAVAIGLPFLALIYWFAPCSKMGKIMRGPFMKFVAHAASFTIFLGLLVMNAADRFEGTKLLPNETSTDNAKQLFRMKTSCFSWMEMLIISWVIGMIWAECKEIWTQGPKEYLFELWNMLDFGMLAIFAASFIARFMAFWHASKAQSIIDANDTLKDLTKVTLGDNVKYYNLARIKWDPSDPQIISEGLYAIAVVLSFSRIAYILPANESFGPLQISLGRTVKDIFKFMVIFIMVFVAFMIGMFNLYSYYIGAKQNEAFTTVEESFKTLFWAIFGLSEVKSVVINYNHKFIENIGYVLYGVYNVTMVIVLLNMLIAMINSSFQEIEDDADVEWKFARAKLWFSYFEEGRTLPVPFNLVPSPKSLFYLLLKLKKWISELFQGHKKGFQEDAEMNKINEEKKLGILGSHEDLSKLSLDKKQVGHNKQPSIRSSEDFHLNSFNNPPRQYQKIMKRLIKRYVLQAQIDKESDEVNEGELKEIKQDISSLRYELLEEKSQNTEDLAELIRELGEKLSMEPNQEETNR
# Experiment: Evaluation of TRPC6 channel inhibitory activity (2), HEK293 cells with stably introduced human TRPC6, OAG stimulation, FLIPR tetra (Compound Nos. 1293 to 1405)
# Type: cell-based
# Conditions: HEK293 cells with stably introduced human TRPC6, OAG 50 μM/0.5% DMSO, read-out: Inhibitory activity (pIC50 class) (converted)
# Summary of the method: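 Calcium-dye-loaded HEK293 cells stably expressing human TRPC6 were pretreated with compound for 25 min, then stimulated with 50 μM OAG (0.5% DMSO) in Ca ringer buffer pH 7.2 with 2 mM CaCl2. Background-subtracted FLIPR calcium peaks were normalized to OAG (100%) and buffer (0%); pIC50 came from four-parameter logistic fit, binned as +/++/+++.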
row,IC50 [nM],Structure (SMILES)
1,< 10,"Cn1nc(C2CCOCC2)cc1Oc1cc(C#N)ccc1-c1ccc([C@@H](F)CN)cn1 [compound 1368, 4-[5-[(1R)-2-amino-1-fluoroethyl]pyridin-2-yl]-3-[2-methyl-5-(oxan-4-yl)pyrazol-3-yl]oxybenzonitrile]"
2,< 10,"Cn1nc(C2CCOCC2)cc1Oc1cc(C#N)ccc1-c1ccc([C@H](F)CN)cn1 [compound 1369, 4-[5-[(1S)-2-amino-1-fluoroethyl]pyridin-2-yl]-3-[2-methyl-5-(oxan-4-yl)pyrazol-3-yl]oxybenzonitrile]"
3,10 to 1000,"Cn1nc(C2CC2)cc1Oc1cc(Cl)cnc1-c1ccc([C@@H](F)CN)cn1 [compound 1370, (2R)-2-[6-[5-chloro-3-(5-cyclopropyl-2-methylpyrazol-3-yl)oxypyridin-2-yl]pyridin-3-yl]-2-fluoroethanamine]"
4,< 10,"Cn1nc(C2CC2)cc1Oc1cc(Cl)cnc1-c1ccc([C@H](F)CN)cn1 [compound 1371, (2S)-2-[6-[5-chloro-3-(5-cyclopropyl-2-methylpyrazol-3-yl)oxypyridin-2-yl]pyridin-3-yl]-2-fluoroethanamine]"
5,> 1000,"Cn1nc(C2CCOCC2)cc1Oc1cc(Cl)cnc1-c1ccc([C@@H](F)CN)cn1 [compound 1372, (2R)-2-[6-[5-chloro-3-[2-methyl-5-(oxan-4-yl)pyrazol-3-yl]oxypyridin-2-yl]pyridin-3-yl]-2-fluoroethanamine]"
6,< 10,"Cn1nc(C2CCOCC2)cc1Oc1cc(Cl)cnc1-c1ccc([C@H](F)CN)cn1 [compound 1373, (2S)-2-[6-[5-chloro-3-[2-methyl-5-(oxan-4-yl)pyrazol-3-yl]oxypyridin-2-yl]pyridin-3-yl]-2-fluoroethanamine]"
7,10 to 1000,"Cc1nc(Oc2cc(Cl)ccc2-c2ncc([C@@H](F)CN)cn2)cc(N2CCOCC2)n1 [compound 1374, (2R)-2-[2-[4-chloro-2-(2-methyl-6-morpholin-4-ylpyrimidin-4-yl)oxyphenyl]pyrimidin-5-yl]-2-fluoroethanamine]"
8,10 to 1000,"Cc1nc(Oc2cc(Cl)ccc2-c2ncc([C@H](F)CN)cn2)cc(N2CCOCC2)n1 [compound 1375, (2S)-2-[2-[4-chloro-2-(2-methyl-6-morpholin-4-ylpyrimidin-4-yl)oxyphenyl]pyrimidin-5-yl]-2-fluoroethanamine]"
9,10 to 1000,"Cc1nc(Oc2cc(Cl)ccc2-c2ncc([C@@H](O)CN)cn2)cc(N2CCOCC2)n1 [compound 1376, (1R)-2-amino-1-[2-[4-chloro-2-(2-methyl-6-morpholin-4-ylpyrimidin-4-yl)oxyphenyl]pyrimidin-5-yl]ethanol]"
10,10 to 1000,"Cc1nc(Oc2cc(Cl)ccc2-c2ncc([C@H](O)CN)cn2)cc(N2CCOCC2)n1 [compound 1377, (1S)-2-amino-1-[2-[4-chloro-2-(2-methyl-6-morpholin-4-ylpyrimidin-4-yl)oxyphenyl]pyrimidin-5-yl]ethanol]"
11,10 to 1000,"Cc1nc(Oc2cc(Cl)ccc2-c2ncc(CCN)cn2)cc(N2CCOCC2)n1 [compound 1378, 2-[2-[4-chloro-2-(2-methyl-6-morpholin-4-ylpyrimidin-4-yl)oxyphenyl]pyrimidin-5-yl]ethanamine]"
12,> 1000,"Cn1nc(-c2ccccn2)cc1Oc1cc(Cl)ccc1-c1ccc([C@H](N)C(F)(F)F)cn1 [compound 1379, (1S)-1-[6-[4-chloro-2-(2-methyl-5-pyridin-2-ylpyrazol-3-yl)oxyphenyl]pyridin-3-yl]-2,2,2-trifluoroethanamine]"
13,< 10,"C[C@@H](N)c1ccc(-c2ccc(Cl)cc2Oc2cc(-c3ccccn3)nn2C)nc1 [compound 1380, (1R)-1-[6-[4-chloro-2-(2-methyl-5-pyridin-2-ylpyrazol-3-yl)oxyphenyl]pyridin-3-yl]ethanamine]"
14,10 to 1000,"Cn1nc(C2CC2)cc1Oc1cc(F)ccc1-c1ncc([C@@H](F)CN)cn1 [compound 1382, (2R)-2-[2-[2-(5-cyclopropyl-2-methylpyrazol-3-yl)oxy-4-fluorophenyl]pyrimidin-5-yl]-2-fluoroethanamine]"
15,10 to 1000,"Cn1nc(C2CC2)cc1Oc1cc(F)ccc1-c1ncc([C@H](O)CN)cn1 [compound 1383, (1S)-2-amino-1-[2-[2-(5-cyclopropyl-2-methylpyrazol-3-yl)oxy-4-fluorophenyl]pyrimidin-5-yl]ethanol]"
16,10 to 1000,"Cn1nc(C2CC2)cc1Oc1cc(F)ccc1-c1ncc([C@@H](O)CN)cn1 [compound 1384, (1R)-2-amino-1-[2-[2-(5-cyclopropyl-2-methylpyrazol-3-yl)oxy-4-fluorophenyl]pyrimidin-5-yl]ethanol]"
17,10 to 1000,"Cc1cc(Oc2cc(Cl)cnc2-c2ncc(CCN)cn2)cc(N2CCOCC2)n1 [compound 1385, 2-[2-[5-chloro-3-(2-methyl-6-morpholin-4-ylpyridin-4-yl)oxypyridin-2-yl]pyrimidin-5-yl]ethanamine]"
18,10 to 1000,"Cn1nc(C2CCOCC2)cc1Oc1cc(Cl)ccc1-c1ccc([C@H](F)CN)cn1 [compound 1386, (2S)-2-[6-[4-chloro-2-[2-methyl-5-(oxan-4-yl)pyrazol-3-yl]oxyphenyl]pyridin-3-yl]-2-fluoroethanamine]"
19,< 10,"Cn1nc(C2CCOCC2)cc1Oc1cc(Cl)ccc1-c1ccc([C@@H](F)CN)cn1 [compound 1387, (2R)-2-[6-[4-chloro-2-[2-methyl-5-(oxan-4-yl)pyrazol-3-yl]oxyphenyl]pyridin-3-yl]-2-fluoroethanamine]"
20,10 to 1000,"Cn1nc(C2CCOCC2)cc1Oc1cc(Cl)ccc1-c1ncc([C@H](O)CN)cn1 [compound 1388, (1S)-2-amino-1-[2-[4-chloro-2-[2-methyl-5-(oxan-4-yl)pyrazol-3-yl]oxyphenyl]pyrimidin-5-yl]ethanol]"
21,10 to 1000,"Cn1nc(C2CCOCC2)cc1Oc1cc(Cl)ccc1-c1ncc([C@@H](O)CN)cn1 [compound 1389, (1R)-2-amino-1-[2-[4-chloro-2-[2-methyl-5-(oxan-4-yl)pyrazol-3-yl]oxyphenyl]pyrimidin-5-yl]ethanol]"
22,10 to 1000,"Cn1nc(C2CCOCC2)cc1Oc1cc(Cl)ccc1-c1ncc(CCN)cn1 [compound 1390, 2-[2-[4-chloro-2-[2-methyl-5-(oxan-4-yl)pyrazol-3-yl]oxyphenyl]pyrimidin-5-yl]ethanamine]"
23,> 1000,"Cc1cc(Oc2cc(C#N)ccc2-c2ncc3c(n2)CNC3)cc(N2CCOCC2)n1 [compound 1392, 4-(6,7-dihydro-5H-pyrrolo[3,4-d]pyrimidin-2-yl)-3-(2-methyl-6-morpholin-4-ylpyridin-4-yl)oxybenzonitrile]"
24,10 to 1000,"Cn1nc(-c2ccccn2)cc1Oc1cc(C#N)ccc1-c1ncc2c(n1)CNC2 [compound 1393, 4-(6,7-dihydro-5H-pyrrolo[3,4-d]pyrimidin-2-yl)-3-(2-methyl-5-pyridin-2-ylpyrazol-3-yl)oxybenzonitrile]"
25,10 to 1000,"Cc1cc(Oc2cc(Cl)ccc2-c2ccc([C@@H](F)CN)cn2)cc(N2CCOCC2)n1 [compound 1394, (2R)-2-[6-[4-chloro-2-(2-methyl-6-morpholin-4-ylpyridin-4-yl)oxyphenyl]pyridin-3-yl]-2-fluoroethanamine]"
26,< 10,"Cc1cc(Oc2cc(Cl)ccc2-c2ccc([C@@H](O)CN)cn2)cc(N2CCOCC2)n1 [compound 1395, (1R)-2-amino-1-[6-[4-chloro-2-(2-methyl-6-morpholin-4-ylpyridin-4-yl)oxyphenyl]pyridin-3-yl]ethanol]"
27,10 to 1000,"Cc1cc(Oc2cc(Cl)ccc2-c2ccc([C@H](O)CN)cn2)cc(N2CCOCC2)n1 [compound 1396, (1S)-2-amino-1-[6-[4-chloro-2-(2-methyl-6-morpholin-4-ylpyridin-4-yl)oxyphenyl]pyridin-3-yl]ethanol]"
28,10 to 1000,"Cc1cc(Oc2cc(Cl)cnc2-c2ccc([C@@H](F)CN)cn2)cc(N2CCOCC2)n1 [compound 1397, (2R)-2-[6-[5-chloro-3-(2-methyl-6-morpholin-4-ylpyridin-4 yl)oxypyridin-2-yl]pyridin-3-yl]-2-fluoroethanamine]"
29,< 10,Cc1cc(Oc2cc(Cl)cnc2-c2ccc([C@H](F)CN)cn2)cc(N2CCOCC2)n1 [compound 1398]
30,> 1000,"Cn1nc(C2CCOCC2)cc1Oc1cc(Cl)cnc1-c1ccc(C(F)(F)CN)cn1 [compound 1399, 2-[6-[5-chloro-3-[2-methyl-5-(oxan-4-yl)pyrazol-3-yl]oxypyridin-2-yl]pyridin-3-yl]-2,2-difluoroethanamine]"

# From patent US20230167073A1 (Teijin Pharma Limited, priority 2020, published 2023)
